One test deals with 843126-344-R-J1-PDC complex spheroid viability. Kind of test: Anticancer human tumor 843126-344-R-J1-PDC patient-derived melanoma cell line growth inhibition [POLQ]. The following applies: second compound 0.0316 µM; first compound 3.16 µM; active compounds read low. Put shortly:
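Three-cell-type spheroids modelling solid tumor plus stroma served as the readout system; POL inhibitors were tested individually and in combination, concentration ranges set by clinical Cmax where known.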
For `CC1COCCN1c1cc(-c2ccnn2C)c2ccnc(-c3ccn[nH]3)c2n1` (stereo unspecified) + Nc1ccc(C#CCN(C(=O)Cc2ncc(C(F)(F)F)cc2C(F)(F)F)c2ccc(F)cc2)nn1, the viability, T/C was 36.7%.
With `CCc1cc2c(N3CCc4c(cc(Cn5ccnc5)cc4-c4cn(C)nc4C(F)(F)F)C3=O)ccnc2c(OC)n1` + Nc1ccc(C#CCN(C(=O)Cc2ncc(C(F)(F)F)cc2C(F)(F)F)c2ccc(F)cc2)nn1, the viability, T/C was 64.7%.
Take `COc1ccc([C@@H](O)c2cc(-c3ncnc4cc(N5CCOCC5)ccc34)c(F)cc2Cl)nn1` + Nc1ccc(C#CCN(C(=O)Cc2ncc(C(F)(F)F)cc2C(F)(F)F)c2ccc(F)cc2)nn1: the viability, T/C is 80.9%.

The same test, now with this note: second compound 0.0316 µM; first compound 10 µM; active compounds read low.
Regarding `C=CC(=O)N1CCN(c2nc(=O)n(-c3c(C)ccnc3C(C)C)c3nc(-c4c(O)cccc4F)c(F)cc23)C(C)C1` (stereo unspecified) + Nc1ccc(C#CCN(C(=O)Cc2ncc(C(F)(F)F)cc2C(F)(F)F)c2ccc(F)cc2)nn1, the viability, T/C was 84.4%.
On the same count and under the same terms, as for `CC(C)n1c(=O)n(C)c2cnc3cc(F)c(-c4ccc(OCCCN5CCCCC5)nc4)cc3c21` + Nc1ccc(C#CCN(C(=O)Cc2ncc(C(F)(F)F)cc2C(F)(F)F)c2ccc(F)cc2)nn1, the figure is 77.8%; as for `CC1COCCN1c1cc(-c2ccnn2C)c2ccnc(-c3ccn[nH]3)c2n1` (stereo unspecified) + Nc1ccc(C#CCN(C(=O)Cc2ncc(C(F)(F)F)cc2C(F)(F)F)c2ccc(F)cc2)nn1, 29%; as for `CCc1cc2c(N3CCc4c(cc(Cn5ccnc5)cc4-c4cn(C)nc4C(F)(F)F)C3=O)ccnc2c(OC)n1` + Nc1ccc(C#CCN(C(=O)Cc2ncc(C(F)(F)F)cc2C(F)(F)F)c2ccc(F)cc2)nn1, 61.6%.
Same read-out and setting: as for `COc1ccc([C@@H](O)c2cc(-c3ncnc4cc(N5CCOCC5)ccc34)c(F)cc2Cl)nn1` + Nc1ccc(C#CCN(C(=O)Cc2ncc(C(F)(F)F)cc2C(F)(F)F)c2ccc(F)cc2)nn1, the figure is 62.9%.

The test is the same for the next values; noted with them: second compound 0.1 µM; first compound 0.0316 µM; active compounds read low.
`C=CC(=O)N1CCN(c2nc(=O)n(-c3c(C)ccnc3C(C)C)c3nc(-c4c(O)cccc4F)c(F)cc23)C(C)C1` (stereo unspecified) + Nc1ccc(C#CCN(C(=O)Cc2ncc(C(F)(F)F)cc2C(F)(F)F)c2ccc(F)cc2)nn1: the viability, T/C is 104%.
Same read-out and setting: as for `CC(C)n1c(=O)n(C)c2cnc3cc(F)c(-c4ccc(OCCCN5CCCCC5)nc4)cc3c21` + Nc1ccc(C#CCN(C(=O)Cc2ncc(C(F)(F)F)cc2C(F)(F)F)c2ccc(F)cc2)nn1, the figure is 93.8%; as for `CC1COCCN1c1cc(-c2ccnn2C)c2ccnc(-c3ccn[nH]3)c2n1` (stereo unspecified) + Nc1ccc(C#CCN(C(=O)Cc2ncc(C(F)(F)F)cc2C(F)(F)F)c2ccc(F)cc2)nn1, 84.3%; as for `CCc1cc2c(N3CCc4c(cc(Cn5ccnc5)cc4-c4cn(C)nc4C(F)(F)F)C3=O)ccnc2c(OC)n1` + Nc1ccc(C#CCN(C(=O)Cc2ncc(C(F)(F)F)cc2C(F)(F)F)c2ccc(F)cc2)nn1, 107%.
As for `COc1ccc([C@@H](O)c2cc(-c3ncnc4cc(N5CCOCC5)ccc34)c(F)cc2Cl)nn1` + Nc1ccc(C#CCN(C(=O)Cc2ncc(C(F)(F)F)cc2C(F)(F)F)c2ccc(F)cc2)nn1, the viability, T/C is 95.7%.

Still in this test, the particulars now being: second compound 0.1 µM; first compound 0.1 µM; active compounds read low.
Turning to `C=CC(=O)N1CCN(c2nc(=O)n(-c3c(C)ccnc3C(C)C)c3nc(-c4c(O)cccc4F)c(F)cc23)C(C)C1` (stereo unspecified) + Nc1ccc(C#CCN(C(=O)Cc2ncc(C(F)(F)F)cc2C(F)(F)F)c2ccc(F)cc2)nn1, the viability, T/C is 86.1%.
As for `CC(C)n1c(=O)n(C)c2cnc3cc(F)c(-c4ccc(OCCCN5CCCCC5)nc4)cc3c21` + Nc1ccc(C#CCN(C(=O)Cc2ncc(C(F)(F)F)cc2C(F)(F)F)c2ccc(F)cc2)nn1, the viability, T/C is 92.4%.
`CC1COCCN1c1cc(-c2ccnn2C)c2ccnc(-c3ccn[nH]3)c2n1` (stereo unspecified) + Nc1ccc(C#CCN(C(=O)Cc2ncc(C(F)(F)F)cc2C(F)(F)F)c2ccc(F)cc2)nn1: the viability, T/C was 71.2%.
The same measure, in the same setting: the value for `CCc1cc2c(N3CCc4c(cc(Cn5ccnc5)cc4-c4cn(C)nc4C(F)(F)F)C3=O)ccnc2c(OC)n1` + Nc1ccc(C#CCN(C(=O)Cc2ncc(C(F)(F)F)cc2C(F)(F)F)c2ccc(F)cc2)nn1 was 100%.
Regarding `COc1ccc([C@@H](O)c2cc(-c3ncnc4cc(N5CCOCC5)ccc34)c(F)cc2Cl)nn1` + Nc1ccc(C#CCN(C(=O)Cc2ncc(C(F)(F)F)cc2C(F)(F)F)c2ccc(F)cc2)nn1, the viability, T/C is 95.8%.

Staying with this test, now noted: second compound 0.1 µM; first compound 0.316 µM; active compounds read low.
Take `C=CC(=O)N1CCN(c2nc(=O)n(-c3c(C)ccnc3C(C)C)c3nc(-c4c(O)cccc4F)c(F)cc23)C(C)C1` (stereo unspecified) + Nc1ccc(C#CCN(C(=O)Cc2ncc(C(F)(F)F)cc2C(F)(F)F)c2ccc(F)cc2)nn1: the viability, T/C is 84.9%.
On the same count and under the same terms, the value for `CC(C)n1c(=O)n(C)c2cnc3cc(F)c(-c4ccc(OCCCN5CCCCC5)nc4)cc3c21` + Nc1ccc(C#CCN(C(=O)Cc2ncc(C(F)(F)F)cc2C(F)(F)F)c2ccc(F)cc2)nn1 was 77.7%; that for `CC1COCCN1c1cc(-c2ccnn2C)c2ccnc(-c3ccn[nH]3)c2n1` (stereo unspecified) + Nc1ccc(C#CCN(C(=O)Cc2ncc(C(F)(F)F)cc2C(F)(F)F)c2ccc(F)cc2)nn1 was 63.5%; that for `CCc1cc2c(N3CCc4c(cc(Cn5ccnc5)cc4-c4cn(C)nc4C(F)(F)F)C3=O)ccnc2c(OC)n1` + Nc1ccc(C#CCN(C(=O)Cc2ncc(C(F)(F)F)cc2C(F)(F)F)c2ccc(F)cc2)nn1 was 81.5%.
Turning to `COc1ccc([C@@H](O)c2cc(-c3ncnc4cc(N5CCOCC5)ccc34)c(F)cc2Cl)nn1` + Nc1ccc(C#CCN(C(=O)Cc2ncc(C(F)(F)F)cc2C(F)(F)F)c2ccc(F)cc2)nn1, the viability, T/C was 103%.

Staying with this test, now noted: second compound 0.1 µM; first compound 1 µM; active compounds read low.
For `C=CC(=O)N1CCN(c2nc(=O)n(-c3c(C)ccnc3C(C)C)c3nc(-c4c(O)cccc4F)c(F)cc23)C(C)C1` (stereo unspecified) + Nc1ccc(C#CCN(C(=O)Cc2ncc(C(F)(F)F)cc2C(F)(F)F)c2ccc(F)cc2)nn1, the viability, T/C was 97.8%.
Same read-out and setting: the value for `CC(C)n1c(=O)n(C)c2cnc3cc(F)c(-c4ccc(OCCCN5CCCCC5)nc4)cc3c21` + Nc1ccc(C#CCN(C(=O)Cc2ncc(C(F)(F)F)cc2C(F)(F)F)c2ccc(F)cc2)nn1 was 84.6%.
`CC1COCCN1c1cc(-c2ccnn2C)c2ccnc(-c3ccn[nH]3)c2n1` (stereo unspecified) + Nc1ccc(C#CCN(C(=O)Cc2ncc(C(F)(F)F)cc2C(F)(F)F)c2ccc(F)cc2)nn1: the viability, T/C is 48.3%.

For the origin of these results see PubChem BioAssay AID1963837 (Molecular Pharmacology Branch, DTP, NCI, 2024).
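Also: spheroids exposed to drugs for seven days before readout.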
